According to patent publication US12497394B2, “Fused-cyclic pyrazolone formamide compound and preparation method therefor, pharmaceutical composition and use thereof” (SHANGHAI INSTITUTE OF MATERIA MEDICA, CHINESE ACADEMY OF …, priority 2018, dated 2025):
“And” between values parts separate entries of the source, which are not always exact repeats. Identical values can stand only once.

How the values were obtained:
[1] = test system: BaF3/TEL-AXL cells; assay: Proliferation of BaF3/TEL-AXL cells; assay type: cell-based; conditions: two values per compound; for inhibition at 0.01 µM / inhibition at 0.1 µM / inhibition at 0.001 µM: BaF3/TEL-AXL, read-out: BaF3/TEL-AXL proliferation Inhibitory rate (%)
From the text: Experimental Example 4: Effect of the Compound on the Proliferation Effect of BaF3/TEL-AXL Cells
Based on the above-mentioned enzyme activity research results, we further explored the effect of the compound on cell proliferation mediated by receptor tyrosine kinase AXL.

[2] = biological target: receptor tyrosine kinase c-Met (Homo sapiens, UniProt P08581); assay: In vitro c-Met kinase inhibitory activity; assay type: biochemical; conditions: two values per compound; for inhibition at 0.01 µM / inhibition at 0.1 µM / inhibition at 0.001 µM: read-out: c-Met Inhibitory rate (%)
From the text: Experimental Example 3: Study of In Vitro c-Met Kinase Inhibitory Activity
Since the screening results of 369 kinase profiles of compound DC621044 has shown that the compound has a certain inhibitory activity on c-Met. We further screened some compounds for their inhibitory activity on c-Met kinase.

Sequence of receptor tyrosine kinase c-Met (P08581 25-1390): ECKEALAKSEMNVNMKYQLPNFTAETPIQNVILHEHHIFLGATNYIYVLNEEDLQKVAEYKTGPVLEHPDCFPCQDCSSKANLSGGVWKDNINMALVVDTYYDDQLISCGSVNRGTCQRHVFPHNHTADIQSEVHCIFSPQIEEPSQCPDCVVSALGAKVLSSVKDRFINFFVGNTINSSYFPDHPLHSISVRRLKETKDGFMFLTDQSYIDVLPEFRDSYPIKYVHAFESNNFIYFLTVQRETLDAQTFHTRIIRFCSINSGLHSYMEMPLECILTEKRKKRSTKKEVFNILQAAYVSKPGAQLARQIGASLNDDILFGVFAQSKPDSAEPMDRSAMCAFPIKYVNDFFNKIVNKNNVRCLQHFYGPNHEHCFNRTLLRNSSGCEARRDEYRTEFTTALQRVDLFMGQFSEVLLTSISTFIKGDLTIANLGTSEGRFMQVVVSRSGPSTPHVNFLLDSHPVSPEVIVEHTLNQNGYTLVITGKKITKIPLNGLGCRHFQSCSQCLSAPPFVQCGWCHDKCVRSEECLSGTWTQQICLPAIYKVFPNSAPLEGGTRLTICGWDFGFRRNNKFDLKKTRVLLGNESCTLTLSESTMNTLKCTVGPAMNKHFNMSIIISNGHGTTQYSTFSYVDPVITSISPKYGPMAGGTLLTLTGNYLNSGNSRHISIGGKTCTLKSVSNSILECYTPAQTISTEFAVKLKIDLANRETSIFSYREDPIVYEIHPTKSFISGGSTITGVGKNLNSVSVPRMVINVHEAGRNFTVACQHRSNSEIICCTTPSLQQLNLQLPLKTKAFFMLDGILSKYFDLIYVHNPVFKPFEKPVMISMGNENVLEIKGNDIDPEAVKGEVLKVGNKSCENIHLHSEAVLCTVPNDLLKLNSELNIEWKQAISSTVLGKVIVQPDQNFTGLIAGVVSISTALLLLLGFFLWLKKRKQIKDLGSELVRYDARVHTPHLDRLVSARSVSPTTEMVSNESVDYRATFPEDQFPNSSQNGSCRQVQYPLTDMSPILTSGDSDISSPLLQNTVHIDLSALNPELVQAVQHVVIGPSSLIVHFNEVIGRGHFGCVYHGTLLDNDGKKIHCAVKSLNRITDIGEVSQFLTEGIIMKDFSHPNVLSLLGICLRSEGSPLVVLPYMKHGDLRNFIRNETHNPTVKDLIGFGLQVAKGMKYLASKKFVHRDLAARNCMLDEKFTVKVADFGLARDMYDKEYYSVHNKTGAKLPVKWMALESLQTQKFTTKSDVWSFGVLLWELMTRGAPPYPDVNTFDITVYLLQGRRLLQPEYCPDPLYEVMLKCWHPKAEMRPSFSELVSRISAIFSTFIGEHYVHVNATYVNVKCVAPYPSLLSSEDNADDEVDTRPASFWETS

Row | Structure (SMILES) | BaF3/TEL-AXL proliferation Inhibitory rate (%) ([1]; 10 nM, 0.01 µM) | BaF3/TEL-AXL proliferation Inhibitory rate (%) ([1]; 100 nM, 0.1 µM) | inhibition at 0.01 µM ([1]; 10 nM) [%] | inhibition at 0.1 µM ([1]; 100 nM) [%] | c-Met Inhibitory rate (%) ([2]; 1 nM, 0.001 µM) | c-Met Inhibitory rate (%) ([2]; 10 nM, 0.01 µM) | inhibition at 0.01 µM ([2]; 10 nM) [%] | c-Met Inhibitory rate (%) ([2]; 100 nM, 0.1 µM) | inhibition at 0.1 µM ([2]; 100 nM) [%] | BaF3/TEL-AXL proliferation Inhibitory rate (%) ([1]; 1 nM, 0.001 µM) | inhibition at 0.001 µM ([1]; 1 nM) [%] | inhibition at 0.001 µM ([2]; 1 nM) [%]
1 | COc1cc2nccc(Oc3ccc(NC(=O)c4c5n(n(-c6ccccc6)c4=O)CCCC5)cc3F)c2cc1OC [DC621001, N-(4-((6,7-dimethoxyquinoline-4-yl)oxy)-3-fluorophenyl)-2-oxo-1-phenyl-1,2,4,5,6,7-hexahydropyrazolo[1,5-a]pyridine-3-formamide] | 59.1 | 71.3 | 54.9 | 82 | 51.7% and 72.4% | 97.6% | 84.7 | 100 | 92 |  |  | 
2 | COc1cc2ncnc(Oc3ccc(NC(=O)c4c5n(n(-c6ccccc6)c4=O)CCCC5)cc3F)c2cc1OC [DC621011, N-(4-((6,7-dimethoxyquinazoline-4-yl)oxy)-3-fluorophenyl)-2-oxo-1-phenyl-1,2,4,5,6,7-hexahydropyrazolo[1,5-a]pyridine-3-formamide] | 56.1 | 83.9 | 60.5 | 84.8 |  | 89.2% | 74.4 | 100 | 86.6 |  |  | 
3 | COc1cc2ncnc(Oc3ccc(NC(=O)c4c5n(n(-c6cc(F)ccc6F)c4=O)CCCC5)cc3)c2cc1OC [DC621022, 1-(2,5-difluorophenyl)-N-(4-((6,7-dimethoxyquinazoline-4-yl)oxy)phenyl)-2-oxo-1,2,4,5,6,7-hexahydropyrazolo[1,5-a]pyridine-3-formamide] | 58.0 | 80.9 | 71.8 | 83.2 | 51.1% | 57.0% | 41.7 | 96.5 | 81.9 | 48.3% | 66.3 | 35.4
4 | COc1cc2ncnc(Oc3ccc(NC(=O)c4c5n(n(-c6cc(F)ccc6F)c4=O)CCCC5)cc3F)c2cc1OC [DC621023, 1-(2,5-difluorophenyl)-N-(4-((6,7-dimethoxyquinazoline-4-yl)oxy)-3-fluorophenyl)-2-oxo-1,2,4,5,6,7-hexahydropyrazolo[1,5-a]pyridine-3-formamide] | 67.6 | 65.0 | 66.5 | 76.8 | 60.9% | 92.3% | 80.9 | 100 | 99.2 | 62.2% and 41.4% |  | 58.9
5 | COc1cc2ncnc(Oc3ccc(NC(=O)c4c5n(n(-c6ccccc6F)c4=O)CCCC5)cc3F)c2cc1OC [DC621034, N-(4-((6,7-dimethoxyquinazoline-4-yl)oxy)-3-fluorophenyl)-1-(2-fluorophenyl)-2-oxo-1,2,4,5,6,7-hexahydropyrazolo[1,5-a]pyridine-3-formamide] |  |  |  |  | 34.8% and 63.9% | 66.5% | 48.3 | 97.0 | 97.5 |  |  | 
6 | O=C(Nc1ccc(Oc2ncnc3[nH]cc(-c4ccccc4)c23)c(F)c1)c1c2n(n(-c3ccccc3)c1=O)CCCC2 [DC621052, N-(3-fluoro-4-((5-phenyl-7H-pyrrolo[2,3-d]pyrimidin-4-yl)oxy)phenyl)-2-oxo-1-phenyl-1,2,4,5,6,7-hexahydropyrazolo[1,5-a]pyridine-3-formamide] |  |  |  |  | 43.0% | 55.1% and 85.0% |  | 94.1 | 84.5 |  |  | 32.7
7 | COc1cc2ncnc(Oc3ccc(NC(=O)c4c5n(n(-c6cc(F)ccc6F)c4=O)CCCC5)c(F)c3)c2cc1OC [DC621053, 1-(2,5-difluorophenyl)-N-(4-((6,7-dimethoxyquinazoline-4-yl)oxy)-2-fluorophenyl)-2-oxo-1,2,4,5,6,7-hexahydropyrazolo[1,5-a]pyridine-3-formamide] | 71.6 | 84.2 | 67.5 | 83.8 |  | 68.5% | 50.9 | 98.7 | 92.8 | 56.7% | 65.3 | 
8 | O=C(Nc1ccc(Oc2ncnc3[nH]cc(-c4ccccc4)c23)c(F)c1)c1c2n(n(-c3cc(F)ccc3F)c1=O)CCCC2 [DC621055, 1-(2,5-difluorophenyl)-N-(3-fluoro-4-((5-phenyl-7H-pyrrolo[2,3-d]pyrimidin-4-yl)oxy)phenyl)-2-oxo-1,2,4,5,6,7-hexahydropyrazolo[1,5-a]pyridine-3-formamide] |  |  |  |  | 30.8% and 53.9% | 74.2% | 68.2 | 100 | 96 |  |  | 
9 | COc1cc2ncnc(Oc3ccc(NC(=O)c4c5n(n(-c6ccccc6F)c4=O)CCCC5)c(F)c3)c2cc1OC [DC621056, N-(4-((6,7-dimethoxyquinazoline-4-yl)oxy)-2-fluorophenyl)-1-(2-fluorophenyl)-2-oxo-1,2,4,5,6,7-hexahydropyrazolo[1,5-a]pyridine-3-formamide] | 74.1 | 84.9 | 70 | 86.6 |  | 72.8% and 49.8% |  | 94.1 | 92 | 58.8% | 45.3 | 
10 | O=C(Nc1ccc(Oc2ncnc3[nH]cc(-c4ccccc4)c23)c(F)c1)c1c2n(n(-c3ccccc3F)c1=O)CCCC2 [DC621058, N-(3-fluoro-4-((5-phenyl-7H-pyrrolo[2,3-d]pyrimidin-4-yl)oxy)phenyl)-1-(2-fluorophenyl)-2-oxo-1,2,4,5,6,7-hexahydropyrazolo[1,5-a]pyridine-3-formamide] |  |  |  |  |  | 45.1% | 54.6 | 83.6 | 89.2 |  |  | 
11 | COc1cc2ncnc(Oc3ccc(NC(=O)c4c5n(n(-c6ccc(F)cc6)c4=O)CCCC5)c(F)c3)c2cc1OC [DC621059, N-(4-((6,7-dimethoxyquinazoline-4-yl)oxy)-2-fluorophenyl)-1-(4-fluorophenyl)-2-oxo-1,2,4,5,6,7-hexahydropyrazolo[1,5-a]pyridine-3-formamide] | 82.7 | 84.2 | 71.4 | 83.7 |  |  |  |  |  | 78.3% | 68.4 | 
12 | COc1cc2ncnc(Oc3ccc(NC(=O)c4c5n(n(-c6ccc(F)cc6)c4=O)CCCC5)cc3C(F)(F)F)c2cc1OC [DC621101, N-(4-((6,7-dimethoxyquinazoline-4-yl)oxy)-3-trifluoromethylphenyl)-1-(4-fluorophenyl)-2-oxo-1,2,4,5,6,7-hexahydropyrazolo[1,5-a]pyridine-3-formamide] |  |  |  |  | 19.6% | 60.9% | 75 | 91.0 | 96.5 |  |  | 27.2
13 | COCCOc1cc2ncnc(Oc3ccc(NC(=O)c4c5n(n(-c6ccc(F)cc6)c4=O)CCCC5)cc3C(F)(F)F)c2cc1OCCOC [DC621102, N-(4-((6,7-bis(2-methoxyethoxy)quinazolin-4-yl)oxy)-3-trifluoromethylphenyl)-1-(4-fluorophenyl)-2-oxo-1,2,4,5,6,7-hexahydropyrazolo[1,5-a]pyridine-3-formamide] |  |  |  |  | 17.2% | 77.2% and 53.4% |  | 93.9 | 99.1 |  |  | 25.6
